These molecules were tested against T1, human Edg 1 receptor (Homo sapiens, UniProt P21453) (assay: GTP-γ-S assay using human Edg 1 receptors (scintillation proximity assay, CHO Flp-In membrane preparation)). Details: test compound at 10 μM; high control 10 μM S1P regarded as 100% activation; background-corrected; triplicate; read-out: % activation (Edg 1 receptor activation in percent of the activation by 10 μM S1P).
T1 construct: expressed in transfected cells; membrane preparation
Assay type: biochemical
Text: Determination of the Pharmacological Activity A) GTP-γ-S Assay Using Human Edg 1 Receptors
In order to determine the Edg 1 receptor activation by the compounds of the invention, a GTP-γ-S ((GTP-γ-S=guanosine 5′-[thio]triphosphate) assay for G-protein coupled receptor binding based on the scintillation proximity assay principle was used, employing a cell membrane preparation from a CHO Flp-In cell line which constitutively overexpresses the human Edg 1 receptor.
The Flp-In™ expression system (Invitrogen, cat. no. K6010-01) allows the generation of stable mammalian cell lines into which the gene of interest has been integrated through homologous recombination at a specific genomic location called Flp Recombination Target (FRT) site by means of a Flp recombinase encoded by the pOG44 expression plasmid. The integration of the pcDNA5/FRT expression construct into the Flp-In host cell line genome results in the transcription of the gene of interest. The stably transfected cells become hygromycin-resistant.
One day prior to transfection, 200 000 Flp-In-CHO cells were seeded in Ham F-12 medium (Invitrogen, cat. no. 31765) supplemented with 10% fetal calf serum (FCS; Perbio Science, cat. no. SH30068.03) in a 6-well plate and incubated at 37° C./5% CO2 overnight. Using the FuGENE® 6 transfection reagent (Roche, cat. no. 11988387001), cells were cotransfected with the Flp recombinase expression plasmid pOG44 and a modified plasmid additionally containing the edg 1 gene (accession no. NM_001400) termed as pcDNA5-FRT-TO_nFLAG_DEST-EDG 1 with a 9:1 ratio. To obtain the modified pcDNA5-FRT-TO_nFLAG_DEST plasmid, the Invitrogen plasmid pcDNA5/FRT/TO (Invitrogen, cat. no. V6520-20) was adapted to the Gateway® (Invitrogen) cloning system by inserting a Gateway cassette containing attR recombination sites flanking a ccdB gene and a chloramphenicol-resistance gene (Gateway conversion system, Invitrogen, cat. no. 11828-029). In addition a FLAG tag epitope was added before the 5′ att recombination site to allow recombinant expression of N-terminally FLAG-tagged proteins.
For the transfection of one well, 1.08 μg of pOG44 and 0.12 μg of pcDNA5-FRT-TO_nFLAG_DEST-EDG 1 were mixed with 100 μl of serum-free Ham F-12 medium containing 6 μl of FuGENE® 6 transfection reagent. After 20 min of incubation, the transfection reagent/DNA complex was distributed dropwise on the cells. The cells were incubated for 24 h at 37° C. Then the cells from 3 wells were transferred to a T75 flask (Greiner Cellstar®, cat. no. 658175) containing Ham F-12 medium supplemented with 10% of FCS but without antibiotic and were incubated for another 24 h. 48 h after transfection, the medium was replaced by selection medium (Ham F-12 supplemented with 10% of FCS and 300 μg/ml of hygromycin B (Invitrogen, cat. no. 10687-010)). The medium was exchanged every 2 to 3 days until a resistant population of cells had grown. […] After 2 weeks of selection, the cells were transferred into T175 flasks (Greiner Cellstar®, cat. no. 660175) and cultivated for batch production. Cells were harvested from the culture flasks by short treatment (2 to 5 min) with Accutase (PAA, cat. no. L^11-007), resuspended in selection medium (see above) and centrifuged at 200×g for 5 min. Cells were resuspended in a mixture of 90% of FCS and 10% of dimethyl sulfoxide and stored frozen in liquid nitrogen.
A membrane preparation was obtained by standard methods from the afore-described CHO Flp-In cell line constitutively overexpressing the human Edg 1 receptor. Briefly, the cryopreserved cells were taken in culture and grown until confluency in T175 cell culture flasks (Becton Dickinson, cat. no. 35 5001). […]

T1 sequence (P21453 whole entry): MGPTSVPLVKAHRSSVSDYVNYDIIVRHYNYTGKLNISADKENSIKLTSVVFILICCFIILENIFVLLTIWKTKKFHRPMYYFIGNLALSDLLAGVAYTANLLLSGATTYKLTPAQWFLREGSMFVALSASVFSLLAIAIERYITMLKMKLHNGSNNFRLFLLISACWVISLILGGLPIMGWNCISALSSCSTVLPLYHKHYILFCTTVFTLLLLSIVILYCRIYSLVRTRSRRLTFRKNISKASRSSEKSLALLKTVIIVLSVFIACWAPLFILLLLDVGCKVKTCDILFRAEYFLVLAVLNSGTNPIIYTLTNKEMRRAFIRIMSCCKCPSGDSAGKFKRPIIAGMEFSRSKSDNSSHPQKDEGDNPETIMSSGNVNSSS

SMILES	activation at 10 µM
CCCOc1nc(Oc2cc(F)ccc2C)nc2oc(-c3cc(C)c(OCC(=O)N4CCC[C@H]4C(=O)O)c(C)c3)nc12 [Example 4, (S)-1-(2-{4-[5-(5-Fluoro-2-methylphenoxy)-7-propoxyoxazolo[5,4-d]pyrimidin-2-yl]-2,6-dimethylphenoxy}acetyl)pyrrolidine-2-carboxylic acid]	110%
CCCOc1nc(Oc2ccc(F)cc2F)nc2oc(-c3cc(C)c(OCC(=O)N4CCC[C@H]4C(=O)O)c(C)c3)nc12 [Example 7, (S)-1-(2-{4-[5-(2,4-Difluorophenoxy)-7-propoxyoxazolo[5,4-d]pyrimidin-2-yl]-2,6-dimethylphenoxy}acetyl)pyrrolidine-2-carboxylic acid]	90%
CCCOc1nc(Oc2cc(F)ccc2F)nc2oc(-c3cc(C)c(OCC(=O)N4CCC[C@H]4C(=O)O)c(C)c3)nc12 [Example 1, (S)-1-(2-{4-[5-(2,5-Difluorophenoxy)-7-propoxyoxazolo[5,4-d]pyrimidin-2-yl]-2,6-dimethylphenoxy}acetyl)pyrrolidine-2-carboxylic acid]	101%
CCCOc1nc(Oc2ccc(C)c(F)c2)nc2oc(-c3cc(C)c(OCC(=O)N4CCC[C@H]4C(=O)O)c(C)c3)nc12 [Example 5, (S)-1-(2-{4-[5-(3-Fluoro-4-methylphenoxy)-7-propoxyoxazolo[5,4-d]pyrimidin-2-yl]-2,6-dimethylphenoxy}acetyl)pyrrolidine-2-carboxylic acid]	79%
CCCOc1nc(Oc2cccnc2)nc2oc(-c3cc(C)c(OCC(=O)N4CCC[C@H]4C(=O)O)c(C)c3)nc12 [Example 6, (S)-1-(2-{2,6-Dimethyl-4-[7-propoxy-5-(pyridin-3-yloxy)oxazolo[5,4-d]pyrimidin-2-yl]phenoxy}acetyl)pyrrolidine-2-carboxylic acid]	112%
CCCOc1nc(Oc2ccccc2F)nc2oc(-c3cc(C)c(OCC(=O)N4CCC[C@H]4C(=O)O)c(C)c3)nc12 [Example 3, (S)-1-(2-{4-[5-(2-Fluorophenoxy)-7-propoxyoxazolo[5,4-d]pyrimidin-2-yl]-2,6-dimethylphenoxy}acetyl)pyrrolidine-2-carboxylic acid]	96%
CCCOc1nc(OC2CCCC[C@H]2F)nc2oc(-c3cc(C)c(OCC(=O)N4CCC[C@H]4C(=O)O)c(C)c3)nc12 (stereo partly drawn) [Example 2, (S)-1-(2-{4-[5-(trans-2-fluorocyclohexyloxy)-7-propoxyoxazolo[5,4-d]pyrimidin-2-yl]-2,6-dimethylphenoxy}acetyl)pyrrolidine-2-carboxylic acid]	97%

Continued, values first:

activation at 10 µM	SMILES
69%	CCOc1nc(Oc2cccc(Cl)c2)nc2oc(-c3cc(C)c(OCC(=O)N4CCC[C@H]4C(=O)O)c(C)c3)nc12 [Example 10, (S)-1-(2-{4-[5-(3-Chlorophenoxy)-7-ethoxyoxazolo[5,4-d]pyrimidin-2-yl]-2,6-dimethylphenoxy}acetyl)pyrrolidine-2-carboxylic acid]
108%	CCCOc1nc(Oc2ccccc2)nc2oc(-c3cc(C)c(OCC(=O)N4CCC[C@H]4C(=O)O)c(C)c3)nc12 [Example 8, (S)-1-{2-[2,6-Dimethyl-4-(5-phenoxy-7-propoxyoxazolo[5,4-d]pyrimidin-2-yl)phenoxy]acetyl}pyrrolidine-2-carboxylic acid]
42%	CCCOc1nc(N(C)CCC(F)(F)F)nc2oc(-c3cc(C)c(OCC(=O)N4CCC[C@H]4C(=O)O)c(C)c3)nc12 [Example 15, (S)-1-[2-(2,6-Dimethyl-4-{5-[methyl-(3,3,3-trifluoropropyl)amino]-7-propoxyoxazolo[5,4-d]pyrimidin-2-yl}phenoxy)acetyl]pyrrolidine-2-carboxylic acid]
85%	CCCOc1nc(OCC2CCC2)nc2oc(-c3cc(C)c(OCC(=O)N4CCC[C@H]4C(=O)O)c(C)c3)nc12 [Example 16, (S)-1-{2-[4-(5-Cyclobutylmethoxy-7-propoxyoxazolo[5,4-d]pyrimidin-2-yl)-2,6-dimethylphenoxy]acetyl}pyrrolidine-2-carboxylic acid]
100%	CCOc1nc(Oc2cccc(F)c2)nc2oc(-c3cc(C)c(OCC(=O)N4CCC[C@H]4C(=O)O)c(C)c3)nc12 [Example 11, (S)-1-(2-{4-[7-Ethoxy-5-(3-fluorophenoxy)oxazolo[5,4-d]pyrimidin-2-yl]-2,6-dimethylphenoxy}acetyl)pyrrolidine-2-carboxylic acid]
95%	CCOc1nc(Oc2cc(F)ccc2F)nc2oc(-c3cc(C)c(OCC(=O)N4CCC[C@H]4C(=O)O)c(C)c3)nc12 [Example 13, (S)-1-(2-{4-[5-(2,5-Difluorophenoxy)-7-ethoxyoxazolo[5,4-d]pyrimidin-2-yl]-2,6-dimethylphenoxy}acetyl)pyrrolidine-2-carboxylic acid]
70%	CCOc1nc(Oc2ccccc2F)nc2oc(-c3cc(C)c(OCC(=O)N4CCC[C@H]4C(=O)O)c(C)c3)nc12 [Example 12, (S)-1-(2-{4-[7-Ethoxy-5-(2-fluorophenoxy)oxazolo[5,4-d]pyrimidin-2-yl]-2,6-dimethylphenoxy}acetyl)pyrrolidine-2-carboxylic acid]
99%	CCOc1nc(Oc2cc(F)ccc2C)nc2oc(-c3cc(C)c(OCC(=O)N4CCC[C@H]4C(=O)O)c(C)c3)nc12 [Example 14, (S)-1-(2-{4-[7-Ethoxy-5-(5-fluoro-2-methylphenoxy)oxazolo[5,4-d]pyrimidin-2-yl]-2,6-dimethylphenoxy}acetyl)pyrrolidine-2-carboxylic acid]
128%	CCCOc1nc(Oc2cccc(Cl)c2)nc2oc(-c3cc(C)c(OCC(=O)N4CCC[C@H]4C(=O)O)c(C)c3)nc12 [Example 9, (S)-1-(2-{4-[5-(3-Chlorophenoxy)-7-propoxyoxazolo[5,4-d]pyrimidin-2-yl]-2,6-dimethylphenoxy}acetyl)pyrrolidine-2-carboxylic acid]

Source: patent US8846691B2, “Heterocyclic carboxylic acid derivatives having a 2,5,7-substituted oxazolopyrimidine ring” (Sanofi, priority 2010, dated 2014)
